According to US5981521A, “Tetrahydroisoquinoline derivatives as LHRH antagonists” (Abbott Laboratories, priority 1998, dated 1999):
Where a name gives a salt, the structure may show the parent alone.

target: T1, LHRH rat pituitary receptor (Rattus norvegicus, UniProt P30969); experiment: LHRH rat pituitary receptor binding; conditions: Table 1: compounds of formula (V), by n and R1
T1 construct: from tissue; host or cells: rat pituitary
T1 sequence (P30969 1-327): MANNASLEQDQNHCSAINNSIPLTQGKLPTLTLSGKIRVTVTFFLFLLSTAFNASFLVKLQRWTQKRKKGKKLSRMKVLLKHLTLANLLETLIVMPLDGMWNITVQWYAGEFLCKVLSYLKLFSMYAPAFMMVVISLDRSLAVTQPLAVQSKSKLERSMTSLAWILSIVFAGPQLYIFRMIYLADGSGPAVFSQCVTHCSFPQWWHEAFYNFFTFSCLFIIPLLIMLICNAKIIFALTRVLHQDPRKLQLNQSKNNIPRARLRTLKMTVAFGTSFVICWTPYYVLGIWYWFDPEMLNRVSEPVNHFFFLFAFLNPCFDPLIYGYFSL
Procedure: Representative compounds of the present invention were evaluated in vitro for potency against for LHRH rat pituitary receptor binding [pK, ]. Methods for the assay procedures are 10 described in […] al. J Med. Chem., 32: 2340-2344 (1989). Values of pK, are the negative logarithms of the equilibrium dissociation constant of the particular antagonist test compound for the receptor binding. […] Leuprolide LHRH agonist, disclosed and claimed in U.S. Pat. No. 4,005, 063, has the structure 5-oxo-[…].

Question: How did the Ki turn out when COc1cc2c(cc1OC)C(CCCCN1C(=O)c3ccccc3C1=O)N(CCCC(CCCNC(=O)CCc1ccc(F)cc1)(c1ccccc1)c1ccccc1)CC2 (centres unmarked) [Example 24, 7-[N-3-(4-Fluorophenyl)propionyl]amino-1-[N-F 1,2,3,4-tetrahydro-1-(4-N-phthalimidobutyl)-6,7-dimethoxyisoquinolinyl)]-4,4-diphenylheptane hydrochloride] was run?
Answer: 0.407 nM

Question: For COc1cc2c(cc1OC)C(CCCCN)N(CCCC(CCCNC(=O)CCc1ccc(F)cc1)(c1ccccc1)c1ccccc1)CC2 (centres unmarked) [Example 25, 7-[N-3-(4-Fluorophenyl)propional]-1-[N-(1,2,3,4-tetrahydro-1-(4-aminobutyl)-6,7-dimethoxyisoquinolinyl)]-4,4-diphenylhentane dihydrochloride], which Ki is on record?
Answer: 0.186 nM

Question: How did the Ki turn out when COc1cc2c(cc1OC)C(CCCCNC(C)C)N(CCCC(CCCNC(=O)CCc1ccc(F)cc1)(c1ccccc1)c1ccccc1)CC2 (centres unmarked) [Example 26, 7-[N-3-(4-Fluorophenyl)propionyl]-1-[N-(1,2,3,4-tetrahydro-1-(4(N-isopropylaminobutyl)-6,7-dimethoxyisoguinolinyl)1-4.4-diohenylheptanedihydrochloride] was run?
Answer: 2.75 nM

Question: COc1cc2c(cc1OC)C(CCCCNCC1CC1)N(CCCC(CCCNC(=O)CCc1ccc(F)cc1)(c1ccccc1)c1ccccc1)CC2 (centres unmarked) [Example 27] was tested. Which pKI did it give?
Answer: 10.0

Question: How did the pKI turn out when COc1cc2c(cc1OC)C(CCCCNC1CCC1)N(CCCC(CCCNC(=O)CCc1ccc(F)cc1)(c1ccccc1)c1ccccc1)CC2 (centres unmarked) [Example 28, 7-[N-3-(4-Fluorophenyl)propionyl]-1-[N-(1,2,3,4-tetrahydro-1-(4-N-(cyclobutylamino)butyl)-6,7-dimethoxyisoquinolinyl)1-4.4-diphenylheptanedihydrochloride] was run?
Answer: 9.60

Question: How did the pKI turn out when COc1cc2c(cc1OC)C(CCCCNCC(C)C)N(CCCC(CCCNC(=O)CCc1ccc(F)cc1)(c1ccccc1)c1ccccc1)CC2 (centres unmarked) [Example 29, 7-[N-3-(4-Fluorophenyl)propionyl]-1-[N-(1,2,3,4-tetrahydro-1-[4-(N-isobutylamino)butyll-6,7-dimethoxyisoguinolinyl)1-4.4-diphenylheptanedihydrochloride] was run?
Answer: 8.60

Question: COc1cc2c(cc1OC)C(CCCCNCCC(C)C)N(CCCC(CCCNC(=O)CCc1ccc(F)cc1)(c1ccccc1)c1ccccc1)CC2 (centres unmarked) [Example 30, 7-[N-3-(4-Fluorophenyl)propionyl]amino-1-[N-(1,2,3,4-tetrahydro-1-(4-N-isopentylamino)butyll-6,7-dimethoxyisoquinolinyl)1-4.4-diphenylheptanedihydrochloride] was tested. Which pKI did it give?
Answer: 8.00

Question: With COc1cc2c(cc1OC)C(CCCCNC(C)c1ccccc1)N(CCCC(CCCNC(=O)CCc1ccc(F)cc1)(c1ccccc1)c1ccccc1)CC2 (stereo not drawn) [Example 31, 7-[N-3-(4-Fluorophenyl)prol)ionyl]amino-1-[N-(1,2,3,4-tetrahydro-1-(4-(N-alpha-methylbenzylamino)butyl-6,7-dimethoxyisoguinolinyl)]-4,4-diphenylheptane dihydrochloride] as the molecule, how does the Ki read?
Answer: 3.98 nM

Question: COc1cc2c(cc1OC)C(CCCCN(CC1CC1)CC1CC1)N(CCCC(CCCNC(=O)CCc1ccc(F)cc1)(c1ccccc1)c1ccccc1)CC2 (centres unmarked) [Example 32, 7-[N-3-(4-Fluorophenyl)pronionyl]amino-1-N-(1,2,3,4-tetrahydro-1-(4-N. N-dicycloprovylmethylamino)butyl-6,7-dimethoxyisoguinolinyl)1-4,4-diphenylheptane dihydrochloride] was tested. Which Ki did it give?
Answer: 0.631 nM

Question: For COc1cc2c(cc1OC)C(CCCCNC(C)=O)N(CCCC(CCCNC(=O)CCc1ccc(F)cc1)(c1ccccc1)c1ccccc1)CC2 (centres unmarked) [Example 34, 7-[N-3-(4-FluoroTphenyl)propionyll-1-[N-(1,2,3,4-tetrahydro-1-(4-N-acetylamino)butyl)-6,7-dimethoxyisoguinolinyl)1-4,4-diphenylheptane hydrochloride], which Ki is on record?
Answer: 2.34 nM

Question: Which Ki does the source give for COc1cc2c(cc1OC)C(CCCCNC(=O)c1cccnc1)N(CCCC(CCCNC(=O)CCc1ccc(F)cc1)(c1ccccc1)c1ccccc1)CC2 (centres unmarked) [Example 35, 7-[N-3-(4-Fluorophenyl)propionyl]amino-1-[N-(1,2,3,4-tetrahydro-1-(4-N-nicotinylamino)-butyl-6,7-dimethoxyisoguinolinyll-4,4-diphenylheptane hydrochloride] here?
Answer: 2.45 nM

Question: For COc1cc2c(cc1OC)C(C1CCC(CN)CC1)N(CCCC(CCCNC(=O)CCc1ccc(F)cc1)(c1ccccc1)c1ccccc1)CC2 (centres unmarked) [Example 37, 7-[N-3-(4-Fluorophenyl)propionyl]-1-[N-(1,2,3,4-tetrahydro-1-(4-aminomethylcyclohexyl)-6,7-dimethoxyisoquinolinyl)1-4.4-diphenylheptanedihydrochloride], which Ki is on record?
Answer: 3.98 nM

Question: For COc1cc2c(cc1OC)C([C@H]1CC[C@H](CNC(C)C)CC1)N(CCCC(CCCNC(=O)CCc1ccc(F)cc1)(c1ccccc1)c1ccccc1)CC2 (some centres unmarked) [Example 38, 7-[N-3-(4-Fluorophenyl)propionyl]-1-[N-(1,2,3,4-tetrahydro-1-(4-N-(isopropylaminomethyl)cyclohexyl-6,7-dimethoxyisoquinolinyl)1-4.4-diphenylheptanedihydrochloride], which Ki is on record?
Answer: 1.58 nM

Question: COc1cc2c(cc1OC)C(C)N(CCC(CCCNC(=O)CCc1ccc(F)cc1)(c1ccccc1)c1ccccc1)CC2 (centres unmarked) [Example 44] was tested. Which Ki did it give?
Answer: 70.8 nM

Question: For COc1cc2c(cc1OC)C(C)N(CCCCC(CCCNC(=O)CCc1ccc(F)cc1)(c1ccccc1)c1ccccc1)CC2 (centres unmarked) [Example 45], which Ki is on record?
Answer: 35.5 nM

same assay, conditions: Table 2: compounds of formula (VI), by isoquinolinyl moiety R

Question: With CC1c2cc(O)c(O)cc2CCN1CCCC(CCCNC(=O)CCc1ccc(F)cc1)(c1ccccc1)c1ccccc1 (centres unmarked) [Example 46, 7-[N-3-(4-Fluorophenyl)propionyl]-1-UN-(1,2,3,4-tetrahydro-1-methyl-6,7-dihydroxyisoguinolinyl)1-4.4-diphenylheptane hydrochloride] as the molecule, how does the Ki read?
Answer: 15.5 nM

Question: CC1c2ccccc2CCN1CCCC(CCCNC(=O)CCc1ccc(F)cc1)(c1ccccc1)c1ccccc1 (centres unmarked) [Example 47, 7-[N-3-(4-Fluorophenyl)propionyl]-1-[N-(1,2,3,4-tetrahydro-1-methylisoquinolinyl)1-4.4-diphenylheptane hydrochloride] was tested. Which Ki did it give?
Answer: 14.5 nM

Question: With CC1c2cc3c(cc2CCN1CCCC(CCCNC(=O)CCc1ccc(F)cc1)(c1ccccc1)c1ccccc1)OCO3 (centres unmarked) [Example 48, 7-[N-3-(4-Fluorophenyl)propionyl]-1-[N-(1,2,3,4-tetrahydro-1-methyl-6,7-dioxalane-isoquinolinyl)1-4,4-diphenylheptane hydrochloride] as the molecule, how does the Ki read?
Answer: 10 nM

Question: How did the pKI turn out when CC1c2cc3c(cc2CCN1CCCC(CCCNC(=O)CCc1ccc(F)cc1)(c1ccccc1)c1ccccc1)OCCO3 (centres unmarked) [Example 49, 7-[N-3-(4-Fluorophenyl)propionyl]amino-1-[N-(1,2,3,4-tetrahydro-1-methyl-6,7-dioxane-isoguinolinyl)1-4.4-diphenylheotane hydrochloride] was run?
Answer: 7.90

Question: With COc1ccc2c(c1)CCN(CCCC(CCCNC(=O)CCc1ccc(F)cc1)(c1ccccc1)c1ccccc1)C2C (stereo not drawn) [Example 50, 7-[N-3-(4-Fluorophenyl)propionyl]amino-1-[-1-(1,2,3,4-tetrahydro-1-methv,l-6-methoxyisoquinolinyl)1-4.4-diphenylheptane hydrochloride] as the molecule, how does the Ki read?
Answer: 2.51 nM

Question: For COc1ccc2c(c1)C(C)N(CCCC(CCCNC(=O)CCc1ccc(F)cc1)(c1ccccc1)c1ccccc1)CC2 (centres unmarked) [Example 51, 7-[N-3-(4-Fluorophenylpropionyl]-1-FA-f 1,2,3,4-tetrahydro-1-methyl-7-methoxy-isoguinolinyl)1-4.4-diphen%-lheptanehydrochloride], which Ki is on record?
Answer: 1.05 nM

Question: Which Ki does the source give for CC1c2cc(Cl)ccc2CCN1CCCC(CCCNC(=O)CCc1ccc(F)cc1)(c1ccccc1)c1ccccc1 (centres unmarked) [Example 52, 7-[N-3-(4-Fluorophenyl)propionyl]-1-[N-(1,2,3,4-tetrahydro-1-methyl-7-chloro-isoguinolinyl)-4,4-dithenylhepMtane hydrochloride] here?
Answer: 3.55 nM

Question: Which Ki does the source give for CC1c2cc(F)ccc2CCN1CCCC(CCCNC(=O)CCc1ccc(F)cc1)(c1ccccc1)c1ccccc1 (stereo not drawn) [Example 53, 7-[N-3-(4-Fluorophenyy)propionyl]-1-[N-(1,2,3,4-tetrahydro-1-methyl-7-fluoro-isoquinolinyl)l-4,4-diphenylheptane hydrochloride] here?
Answer: 14.5 nM

Question: With CC1c2cc([N+](=O)[O-])ccc2CCN1CCCC(CCCNC(=O)CCc1ccc(F)cc1)(c1ccccc1)c1ccccc1 (stereo not drawn) [Example 54, 7-[N-3-(4-Fluorophenyl)Propionyl]-1-[N-(1,2,3,4-tetrahydro-1-methyl-7-nitro-isoquinolinyl)l-4,4-diphenylheiptane hydrochloride] as the molecule, how does the Ki read?
Answer: 4.37 nM

Question: For CC(=O)Nc1ccc2c(c1)C(C)N(CCCC(CCCNC(=O)CCc1ccc(F)cc1)(c1ccccc1)c1ccccc1)CC2 (stereo not drawn) [Example 55, 7-[N-3-(4-Fluorophenyl)propionyl]-1-[N-(1,2,3,4-tetrahydro-l-methyl-7-acetylamino-isoquinolinyl)1-4.4-diphenylheptane hydrochloride], which Ki is on record?
Answer: 8.71 nM

Question: For CC1c2cc(Cl)c(Cl)cc2CCN1CCCC(CCCNC(=O)CCc1ccc(F)cc1)(c1ccccc1)c1ccccc1 (centres unmarked) [Example 56, 7-[N-3-(4-Fluorophenyl)propionyl]-1-[N-(1,2,3,4-tetrahydro-1-methyl-6,7-dichloro-isoquinolinyl)1-4.4-diphenylheptane hydrochloride], which Ki is on record?
Answer: 3.72 nM
